Assay results: US4783410A (priority 1985, dated 1988)
Entries after “also recorded” stand apart in the source; their conditions may differ.

Legend:
[1] = tested on: specific target cell lysis of P815 cells by CTL clone G4; conditions: cited from earlier work
[2] = molecular target: CTL serine esterase (G4 extract) (Mus musculus, UniProt P11032); assay: biochemical; type: biochemical, murine
[3] = tested on: specific target cell lysis of P815 cells by CTL clone G4; type: cell-based, murine

Chain of CTL serine esterase (G4 extract) (P11032 29-260): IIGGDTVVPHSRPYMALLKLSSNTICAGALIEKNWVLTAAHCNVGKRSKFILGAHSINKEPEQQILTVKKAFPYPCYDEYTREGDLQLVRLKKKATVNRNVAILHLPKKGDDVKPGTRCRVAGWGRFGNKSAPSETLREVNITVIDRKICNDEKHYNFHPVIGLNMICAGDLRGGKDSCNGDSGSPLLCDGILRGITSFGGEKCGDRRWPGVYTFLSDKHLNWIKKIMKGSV

Row | SMILES | Block of CTL cytotoxicity [1] | Inhibition of CTL esterase activity (in words) [2] | inhibition at 500 µM ([2]; read-out: Percent Inhibition of esterase activity) [%] | Toxicity to G4 cells by 51Cr release or reduced recovery of viable (trypan blue-negative) cells (G4 cells) | Inhibition of lysis of P815 cells by cloned anti-D^d G4 cells [3]
1 | Cc1ccc(S(=O)(=O)NC(CCCCN)C(=O)CCl)cc1 (stereo not drawn) [TLCK, N^alpha -tosyl lysyl chloromethyl ketone] | known to block CTL cytotoxicity | not, however, inhibited | 4.6 |  | 
2 | O=S(=O)(F)Cc1ccccc1 [PMSF, phenylmethylsulfonyl fluoride] |  | blocked completely; also recorded: completely inhibitable |  | no additive toxicity | clearly inhibits lysis
